{"source": "patent US9556132B2", "about": "“Tetrazole derivatives and their use as potassium channel modulators” (SANIONA A/S, priority 2012, dated 2017)", "data": [{"molecular_target": "human IK (Homo sapiens (Human), UniProt O15554)", "test": "Inhibition of IK channels expressed in HEK293 cells, thallium (I) sensitive FLIPR assay", "assay_type": "cell-based", "conditions": "HEK293 cells over-expressing human IK; Tl+-sensitive BTC fluorescence (FLIPR); inhibition of activity induced by Ca2+-ionophore A23187", "protocol": "Following experiment determines the ability of a test compound to inhibit the activity of IK channels heterologously expressed in human HEK293 cells, and was used as the primary screen. The ability is determined as per cent inhibition of the activity induced by addition of the Ca^2+-ionophore A23187 (considered a maximum response). The activity is determined using a standard thallium (I) sensitive assay, e.g. using a fluorometric method in a Fluorescent Image Plate Reader (FLIPR) as described below in more detail.\nFull concentration/response curves are generated and IC50 values are calculated based on the degree of inhibition of the maximum response. IC50 values (Inhibitory Concentration) represent the concentration of the test substance at which 50% of the maximum channel activity is inhibited.\nHuman HEK293 cells over-expressing human IK are grown in culture medium (DMEM supplemented with 10% foetal bovine serum), in polystyrene culture flasks ([…]) in a humidified atmosphere of 5% CO2 in air, at 37° C. Cell confluence should be 80-90% on day of plating. Cells are rinsed with 4 mL of PBS (phosphate buffered saline) and incubated 2 min with 1 mL of Trypsin-EDTA. After addition of 25 mL of culture medium cells are re-suspended by trituration with a 25 mL pipette.\nThe cells are seeded at a density of ˜3×10^6 cells/mL (25 μL/well) in black-walled, clear bottom, 384-well plates pre-treated with 0.01 g/L poly-D-lysin (20 μL/well for ≧30 min). Plated cells were allowed to proliferate for 24 h before loading with dye.\nBTC-AM ([…], Invitrogen) is added 25.5 μl DMSO. The BTC-AM stock solution (2 mM) is diluted to a final concentration of 2 μM in […] assay buffer (in mM: 140 Na^+-gluconate, 2.5 K^+-gluconate, 6 Ca2^+-gluconate, 1 Mg^2+ gluconate, 5 glucose, 10 HEPES, pH 7.3) containing 2 μM ouabain, 2 mM amaranth and 1 mM tartrazine.\nThe culture medium is aspirated from the wells, and 25 μl of the BTC-AM loading solution are added to each well. The cells are incubated at 37° C. for 60 min.\nAfter the loading period, the Tl^+-sensitive BTC fluorescence signal is measured over time using a FLIPR.\n• Temperature: Room temp. • First addition: 12 μl test or control compound after 15 sec at a rate of 30 μL/sec and starting height of 20 μL • Second addition: 12 μL stimulus buffer (Cl^− free assay buffer supplemented with 1 mM Tl2SO4, 5 μM A23187 as well as the quenchers amaranth (2 mM) and tartrazine (1 mM)) is added after an additional 3 minutes at a rate of 30 μL/sec and starting height of 30 μL • Reading intervals: First sequence—3 sec×5, 2 sec×24 and 5 sec×25 • Second sequence—1 sec×5, 2 sec×24 and 5 sec×36\nAddition plates (compound plate and stimulus plate) are placed in positions 2 and 3, respectively. Cell plates are placed in position 1 and run using the “IK blocker (EtOH wash, two additions)” program. FLIPR will then take the appropriate measurements in accordance with the interval settings above. Fluorescence obtained after stimulation is corrected for the mean basal fluorescence (in Cl^− free assay buffer).\nFull concentration/response curves are generated and IC50 values (“Inhibitory Concentration”, i.e. the concentration of the test substance at which 50% of the maximum channel activity is inhibited) are calculated. The responses are calculated based on peak values.", "units": {"IC50": "nM"}, "values": [{"smiles": "CCOc1ccccc1-c1ccccc1-c1nnnn1-c1ccccc1F", "note": "[Compound 3, 5-[2-(2-Ethoxyphenyl)phenyl]-1-(2-fluorophenyl)-1H-1,2,3,4-tetrazole]", "IC50": 37}, {"smiles": "FCc1ccccc1-c1ccccc1-c1nnnn1-c1ccccc1F", "note": "[Compound 33, 5-{2-[2-(Fluoromethyl)phenyl]phenyl}-1-(2-fluorophenyl)-1H-1,2,3,4-tetrazole]", "IC50": 17}, {"smiles": "COc1ccccc1-c1ccccc1-c1nnnn1-c1ccccc1OC(F)F", "note": "[Compound 59, 1-[2-(Difluoromethoxy)phenyl]-5-[2-(2-methoxyphenyl)phenyl]-1H-1,2,3,4-tetrazole]", "IC50": 69}, {"smiles": "CCc1ccccc1-c1ccccc1-c1nnnn1-c1ccccc1F", "note": "[Compound 20, 5-[2-(2-Ethylphenyl)phenyl]-1-(2-fluorophenyl)-1H-1,2,3,4-tetrazole]", "IC50": 290}, {"smiles": "COCOc1ccccc1-c1ccccc1-c1nnnn1-c1ccccc1F", "note": "[Compound 16, 1-(2-Fluorophenyl)-5-{2-[2-(methoxymethoxy)phenyl]phenyl}-1H-1,2,3,4-tetrazole]", "IC50": 190}, {"smiles": "COc1ccccc1-n1nnnc1-c1ccccc1-c1ccccc1F", "note": "[Compound 54, 5-[2-(2-Fluorophenyl)phenyl]-1-(2-methoxyphenyl)-1H-1,2,3,4-tetrazole]", "IC50": 780}, {"smiles": "Fc1ccccc1-c1ccccc1-c1nnnn1-c1ccccc1Cl", "note": "[Compound 48, 1-(2-Chlorophenyl)-5-[2-(2-fluorophenyl)phenyl]-1H-1,2,3,4-tetrazole]", "IC50": 1000}, {"smiles": "N#Cc1ccccc1-c1ccccc1-c1nnnn1-c1ccccc1F", "note": "[Compound 31, 2-{2-[1-(2-Fluorophenyl)-1H-1,2,3,4-tetrazol-5-yl]phenyl}benzonitrile]", "IC50": 110}, {"smiles": "COc1ccccc1-c1ccccc1-c1nnnn1-c1ccccc1F", "note": "[Compound 13, 1-(2-Fluorophenyl)-5-[2-(2-methoxyphenyl)phenyl]-1H-1,2,3,4-tetrazole]", "IC50": 110}, {"smiles": "COC(=O)COc1ccccc1-c1ccccc1-c1nnnn1-c1ccccc1F", "note": "[Compound 8, Methyl 2-(2-{2-[1-(2-fluorophenyl)-1H-1,2,3,4-tetrazol-5-yl]phenyl}phenoxy)acetate]", "IC50": 590}, {"smiles": "COc1ccccc1-c1ccccc1-c1nnnn1-c1ccccc1Cl", "note": "[Compound 49, 1-(2-Chlorophenyl)-5-[2-(2-methoxyphenyl)phenyl]-1H-1,2,3,4-tetrazole]", "IC50": 540}, {"smiles": "Fc1ccccc1-n1nnnc1-c1ccccc1-c1ccccc1OC(F)F", "note": "[Compound 5, 5-{2-[2-(Difluoromethoxy)phenyl]phenyl}-1-(2-fluorophenyl)-1H-1,2,3,4-tetrazole]", "IC50": 290}, {"smiles": "Fc1ccccc1-n1nnnc1-c1ccccc1-c1ccccc1Br", "note": "[Compound 23, 5-[2-(2-Bromophenyl)phenyl]-1-(2-fluorophenyl)-1H-1,2,3,4-tetrazole]", "IC50": 550}, {"smiles": "Oc1ccccc1-c1ccccc1-c1nnnn1-c1ccccc1F", "note": "[Compound 2, 2-{2-[1-(2-Fluorophenyl)-1H-1,2,3,4-tetrazol-5-yl]phenyl}phenol]", "IC50": 5900}, {"smiles": "COCCOc1ccccc1-c1ccccc1-c1nnnn1-c1ccccc1F", "note": "[Compound 4, 1-(2-Fluorophenyl)-5-{2-[2-(2-methoxyethoxyl)phenyl]phenyl}-1H-1,2,3,4-tetrazole]", "IC50": 30}, {"smiles": "OCc1ccccc1-c1ccccc1-c1nnnn1-c1ccccc1F", "note": "[Compound 28, (2-{2-[1-(2-Fluorophenyl)-1H-1,2,3,4-tetrazol-5-yl]phenyl}phenyl)methanol]", "IC50": 770}, {"smiles": "c1ccc(-c2ccccc2-c2nnnn2-c2ccccc2)cc1", "note": "[Compound 65, 1-Phenyl-5-(2-phenylphenyl)-1H-1,2,3,4-tetrazole]", "IC50": 890}, {"smiles": "Fc1ccccc1-n1nnnc1-c1ccccc1-c1ccccc1OC(F)(F)F", "note": "[Compound 15, 1-(2-Fluorophenyl)-5-{2-[2-(trifluoromethoxy)phenyl]phenyl}-1H-1,2,3,4-tetrazole]", "IC50": 1700}, {"smiles": "Fc1ccccc1-n1nnnc1-c1ccccc1-c1ccccc1OCC1CC1", "note": "[Compound 6, 5-{2-[2-(Cyclopropylmethoxy)phenyl]phenyl}-1-(2-fluorophenyl)-1H-1,2,3,4-tetrazole]", "IC50": 710}, {"smiles": "Fc1ccccc1-n1nnnc1-c1ccccc1-c1ccccc1Cl", "note": "[Compound 24, 5-[2-(2-Chlorophenyl)phenyl]-1-(2-fluorophenyl)-1H-1,2,3,4-tetrazole]", "IC50": 360}, {"smiles": "N#Cc1ccccc1-n1nnnc1-c1ccccc1-c1ccccc1OC(F)F", "note": "[Compound 62, 2-(5-{2-[2-(Difluoromethoxy)phenyl]phenyl}-1H-1,2,3,4-tetrazol-1-yl)benzonitrile]", "IC50": 210}, {"smiles": "COc1ccccc1-c1ccccc1-c1nnnn1-c1ccccc1C#N", "note": "[Compound 56, 2-{5-[2-(2-Methoxyphenyl)phenyl]-1H-1,2,3,4-tetrazol-1-yl}benzonitrile]", "IC50": 64}, {"smiles": "Fc1ccccc1-n1nnnc1-c1ccccc1-c1ccccc1", "note": "[Compound 40, 1-(2-Fluorophenyl)-5-(2-phenylphenyl)-1H-1,2,3,4-tetrazole]", "IC50": 800}, {"smiles": "Fc1ccccc1-c1ccccc1-c1nnnn1-c1ccccc1OC(F)F", "note": "[Compound 58, 1-[2-(Difluoromethoxy)phenyl]-5-[2-(2-fluorophenyl)phenyl]-1H-1,2,3,4-tetrazole]", "IC50": 1100}, {"smiles": "Cc1ccccc1-c1ccccc1-c1nnnn1-c1ccccc1F", "note": "[Compound 19, 1-(2-Fluorophenyl)-5-[2-(2-methylphenyl)phenyl]-1H-1,2,3,4-tetrazole]", "IC50": 510}, {"smiles": "FCOc1ccccc1-c1ccccc1-c1nnnn1-c1ccccc1F", "note": "[Compound 12, 5-{2-[2-(Fluoromethoxy)phenyl]phenyl}-1-(2-fluorophenyl)-1H-1,2,3,4-tetrazole]", "IC50": 300}, {"smiles": "Fc1ccccc1-c1ccccc1-c1nnnn1-c1ccccc1F", "note": "[Compound 25, 1-(2-Fluorophenyl)-5-[2-(2-fluorophenyl)phenyl]-1H-1,2,3,4-tetrazole]", "IC50": 700}, {"smiles": "Nc1ccccc1-c1ccccc1-c1nnnn1-c1ccccc1F", "note": "[Compound 27, 2-{2-[1-(2-Fluorophenyl)-1H-1,2,3,4-tetrazol-5-yl]phenyl}aniline]", "IC50": 900}, {"smiles": "CC(C)Oc1ccccc1-c1ccccc1-c1nnnn1-c1ccccc1F", "note": "[Compound 9, 1-(2-Fluorophenyl)-5-{2-[2-(propan-2-yloxy)phenyl]phenyl}-1H-1,2,3,4-tetrazole]", "IC50": 770}, {"smiles": "COCc1ccccc1-c1ccccc1-c1nnnn1-c1ccccc1F", "note": "[Compound 29, 1-(2-Fluorophenyl)-5-{2-[2-(methoxymethyl)phenyl]phenyl}-1H-1,2,3,4-tetrazole]", "IC50": 58}, {"smiles": "O=Cc1ccccc1-c1ccccc1-c1nnnn1-c1ccccc1F", "note": "[Compound 21, 2-{2-[1-(2-Fluorophenyl)-1H-1,2,3,4-tetrazol-5-yl]phenyl}benzaldehyde]", "IC50": 550}, {"smiles": "Fc1ccccc1-n1nnnc1-c1ccccc1-c1ccccc1C(F)(F)F", "note": "[Compound 22, 1-(2-Fluorophenyl)-5-{2-[2-(trifluoromethyl)phenyl]phenyl}-1H-1,2,3,4-tetrazole]", "IC50": 1700}, {"smiles": "Fc1ccccc1-n1nnnc1-c1ccccc1-c1ccccc1C(F)F", "note": "[Compound 32, 5-{2-[2-(Difluoromethyl)phenyl]phenyl}-1-(2-fluorophenyl)-1H-1,2,3,4-tetrazole]", "IC50": 870}, {"smiles": "NC(=O)COc1ccccc1-c1ccccc1-c1nnnn1-c1ccccc1F", "note": "[Compound 17, 2-(2-{2-[1-(2-Fluorophenyl)-1H-1,2,3,4-tetrazol-5-yl]phenyl}phenoxy)acetamide]", "IC50": 1000}, {"smiles": "CN(C)c1ccccc1-c1ccccc1-c1nnnn1-c1ccccc1F", "note": "[Compound 26, 2-{2-[1-(2-Fluorophenyl)-1H-1,2,3,4-tetrazol-5-yl]phenyl}-N,N-dimethylaniline]", "IC50": 820}, {"smiles": "N#CCOc1ccccc1-c1ccccc1-c1nnnn1-c1ccccc1F", "note": "[Compound 7, 2-(2-{2-[1-(2-Fluorophenyl)-1H-1,2,3,4-tetrazol-5-yl]phenyl}phenoxy)acetonitrile]", "IC50": 16}]}]}
